# Laboratory results taken from ChEMBL document CHEMBL5649166, “RIP3 induces apoptosis independent of pronecrotic kinase activity” (Mol Cell, 2014).
# The source made the active and inactive calls. The calls are words filed in the database; no cut-off is given here.
# What was measured:
# L929 [1] = experiment: Inhibition of TLR-3 induced necroptosis in mouse L929 cells assessed as increase in cell viability at higher concentration incubated for 18 hrs in presence of poly(I:C) by Cell Titer-Glo luminescent cell viability assay; format: functional, cell-based
# L929 [2] = experiment: Cytotoxicity against mouse L929 cells assessed as induction of apoptosis at 3 to 10 uM incubated for 18 hrs by Cell Titer-Glo luminescent cell viability assay; format: toxicity, cell-based; details: l929, 18 h, dose 3-10 µM
# 3T3SA [3] = experiment: Induction of apoptosis in mouse 3T3SA cells transfected with RIP1 siRNA assessed as accumulation of cleaved caspase 3 incubated for 0.5 to 1.5 hrs by immunoblot analysis; format: toxicity, cell-based; details: time 0.5-1.5 hrs
# [4] = biological target: T1, Serine/threonine-protein kinase NLK (Homo sapiens) (UniProt Q9UBE8); experiment: Inhibition of human NLK using myelin basic protein as substrate at 1 uM in presence of 32P-ATP by Hotspot assay relative to control; values are per cent of control
# T1 sequence (whole entry): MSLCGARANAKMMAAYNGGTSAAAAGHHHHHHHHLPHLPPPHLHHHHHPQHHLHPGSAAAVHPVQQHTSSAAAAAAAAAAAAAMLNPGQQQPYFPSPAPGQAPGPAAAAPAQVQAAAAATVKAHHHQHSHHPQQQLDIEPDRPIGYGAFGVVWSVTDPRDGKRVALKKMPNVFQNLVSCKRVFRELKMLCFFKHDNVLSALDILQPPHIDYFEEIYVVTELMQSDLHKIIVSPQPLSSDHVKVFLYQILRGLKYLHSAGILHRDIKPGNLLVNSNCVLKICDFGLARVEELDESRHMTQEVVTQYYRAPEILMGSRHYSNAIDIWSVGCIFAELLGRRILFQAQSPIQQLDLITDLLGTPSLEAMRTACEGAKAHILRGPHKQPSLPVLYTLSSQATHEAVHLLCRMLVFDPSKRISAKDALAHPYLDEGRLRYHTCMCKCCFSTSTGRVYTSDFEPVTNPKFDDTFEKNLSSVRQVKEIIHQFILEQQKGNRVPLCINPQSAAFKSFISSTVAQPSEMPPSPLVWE
# 3T3SA [5] = experiment: Induction of apoptosis in mouse 3T3SA cells assessed as accumulation of cleaved caspase-3 measured after 1.5 to 2.5 hrs by immunoblot analysis; format: toxicity, cell-based; details: time 1.5-2.5 hrs
# L929 [6] = experiment: Cytotoxicity against mouse L929 cells assessed as induction of apoptosis at 10 uM incubated for 18 hrs in presence of zVAD by Cell Titer-Glo luminescent cell viability assay; format: toxicity, cell-based; details: l929, 18 h
# SVEC4-10 [7] = experiment: Inhibition of DAI-induced necroptosis in MCMV M45mutRHIM infected mouse SVEC4-10 cells assessed as increase in cell viability at 10 uM incubated for 18 hrs in presence of zVAD by Cell Titer-Glo luminescent cell viability assay; format: functional, cell-based
# 3T3SA [8] = experiment: Cytotoxicity against mouse 3T3SA cells assessed as induction of apoptosis at 10 uM incubated for 18 hrs in presence of zVAD by Cell Titer-Glo luminescent cell viability assay; format: toxicity, cell-based
# SVEC4-10 [9] = experiment: Cytotoxicity against mouse SVEC4-10 cells assessed as induction of apoptosis at 3 to 10 uM incubated for 18 hrs by Cell Titer-Glo luminescent cell viability assay; format: toxicity, cell-based; details: svec4-10, 18 h, dose 3-10 µM
# SVEC4-10 [10] = experiment: Cytotoxicity against mouse SVEC4-10 cells assessed as induction of apoptosis at 10 uM incubated for 18 hrs in presence of zVAD by Cell Titer-Glo luminescent cell viability assay; format: toxicity, cell-based; details: svec4-10, 18 h
# MEF [11] = experiment: Cytotoxicity against MEF cells assessed as induction of apoptosis at 3 to 10 uM incubated for 18 hrs by Cell Titer-Glo luminescent cell viability assay; format: toxicity, cell-based; details: mouse, dose 3-10 µM
# 3T3SA [12] = experiment: Cytotoxicity against mouse 3T3SA cells assessed as induction of apoptosis at 3 to 10 uM incubated for 18 hrs by Cell Titer-Glo luminescent cell viability assay; format: toxicity, cell-based; details: dose 3-10 µM
# MEF [13] = experiment: Cytotoxicity against MEF cells assessed as induction of apoptosis at 10 uM incubated for 18 hrs in presence of zVAD by Cell Titer-Glo luminescent cell viability assay; format: toxicity, cell-based; details: mouse
# [14] = biological target: T2, Tyrosine-protein kinase JAK3 (Homo sapiens) (UniProt P52333); experiment: Inhibition of human JAK3 using GGEEEEYFELVKKKK as substrate at 1 uM in presence of 32P-ATP by Hotspot assay relative to control; values are per cent of control
# T2 sequence (whole entry): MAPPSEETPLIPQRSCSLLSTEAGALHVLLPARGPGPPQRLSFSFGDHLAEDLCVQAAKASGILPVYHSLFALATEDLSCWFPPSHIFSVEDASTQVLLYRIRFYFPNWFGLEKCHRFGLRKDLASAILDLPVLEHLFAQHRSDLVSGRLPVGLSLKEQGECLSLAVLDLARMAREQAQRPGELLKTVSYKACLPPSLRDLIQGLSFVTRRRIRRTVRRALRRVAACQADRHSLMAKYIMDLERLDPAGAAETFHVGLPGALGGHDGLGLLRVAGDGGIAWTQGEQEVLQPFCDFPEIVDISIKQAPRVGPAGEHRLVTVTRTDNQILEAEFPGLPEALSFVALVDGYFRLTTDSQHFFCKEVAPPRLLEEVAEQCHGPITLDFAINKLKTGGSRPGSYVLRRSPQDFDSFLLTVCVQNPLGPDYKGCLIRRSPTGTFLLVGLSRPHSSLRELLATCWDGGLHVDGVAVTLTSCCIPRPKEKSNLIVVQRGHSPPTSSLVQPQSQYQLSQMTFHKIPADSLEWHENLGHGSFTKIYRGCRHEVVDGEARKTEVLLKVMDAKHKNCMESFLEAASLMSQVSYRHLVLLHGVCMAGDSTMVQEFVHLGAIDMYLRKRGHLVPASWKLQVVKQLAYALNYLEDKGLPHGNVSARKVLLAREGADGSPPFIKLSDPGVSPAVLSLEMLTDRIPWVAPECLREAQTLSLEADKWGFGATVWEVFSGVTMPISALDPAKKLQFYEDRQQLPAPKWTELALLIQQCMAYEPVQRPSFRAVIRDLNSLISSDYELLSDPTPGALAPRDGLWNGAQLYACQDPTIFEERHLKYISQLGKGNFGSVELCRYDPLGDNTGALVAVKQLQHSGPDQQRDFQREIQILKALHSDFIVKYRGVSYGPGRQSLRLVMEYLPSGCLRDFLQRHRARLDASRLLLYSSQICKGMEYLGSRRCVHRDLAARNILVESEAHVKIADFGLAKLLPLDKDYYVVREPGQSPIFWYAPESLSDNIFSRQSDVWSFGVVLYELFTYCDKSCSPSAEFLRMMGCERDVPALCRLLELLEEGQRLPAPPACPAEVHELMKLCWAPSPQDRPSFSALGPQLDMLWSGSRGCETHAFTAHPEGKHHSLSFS
# [15] = biological target: T3, Receptor-interacting serine/threonine-protein kinase 3 (Homo sapiens, UniProt Q9Y572); experiment: Inhibition of recombinant human RIP3 kinase activity by ADP-glo assay
# T3 sequence (Q9Y572 whole entry, the tested form may be a part): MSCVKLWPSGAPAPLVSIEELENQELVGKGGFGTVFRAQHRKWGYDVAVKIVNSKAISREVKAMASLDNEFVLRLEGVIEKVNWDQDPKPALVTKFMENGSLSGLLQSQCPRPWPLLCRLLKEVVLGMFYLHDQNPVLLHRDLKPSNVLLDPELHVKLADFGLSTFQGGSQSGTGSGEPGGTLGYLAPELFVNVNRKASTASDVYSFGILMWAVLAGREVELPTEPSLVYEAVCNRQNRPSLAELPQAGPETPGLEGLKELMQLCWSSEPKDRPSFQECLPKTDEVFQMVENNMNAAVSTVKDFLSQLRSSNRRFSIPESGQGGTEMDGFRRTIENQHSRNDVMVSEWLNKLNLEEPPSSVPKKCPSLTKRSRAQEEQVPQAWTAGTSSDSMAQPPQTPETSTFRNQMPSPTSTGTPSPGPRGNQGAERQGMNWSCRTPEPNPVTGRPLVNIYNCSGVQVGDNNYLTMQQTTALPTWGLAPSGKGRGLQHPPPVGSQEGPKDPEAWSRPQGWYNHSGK
# [16] = biological target: T3, Receptor-interacting serine/threonine-protein kinase 3; experiment: Inhibition of recombinant human RIP3 kinase domain (1 to 328 residues) expressed in baculovirus expression system by fluorescence polarization assay
Compound,inhibition (L929 [1]),Activity (L929 [2]),Activity (3T3SA [3]),residual activity [4],Activity (3T3SA [5]),Activity (L929 [6]),inhibition (SVEC4-10 [7]),Activity (3T3SA [8]),Activity (SVEC4-10 [9]),Activity (SVEC4-10 [10]),Activity (MEF [11]),Activity (3T3SA [12]),Activity (MEF [13]),residual activity [14],IC50 [15],IC50 [16]
CC(C)S(=O)(=O)c1ccc2nccc(Nc3ccc4scnc4c3)c2c1,inactive,Toxic,Non-Toxic,41.8%,Toxic,Non-Toxic,Active,Non-Toxic,Toxic,Non-Toxic,Toxic,Toxic,Non-Toxic,102%,,
Cc1cc(-c2cnc(N)c3c(-c4ccc5scnc5c4)csc23)n(C)n1,,Toxic,,6.75%,,Non-Toxic,,Non-Toxic,Toxic,Non-Toxic,Toxic,Toxic,Non-Toxic,96.6%,6.5 nM,8.6 nM
CNC(=O)c1ccc2c(c1)ncn2-c1ccc(CC(=O)OC(C)(C)C)cc1,,,,99.7%,,,,,,,,,,94.3%,0.3 nM,0.9 nM
